Measurements reported in the supplement of paper PMC10307832.

Experiments:
Assay in all cases: relative viability (nuclei count vs DMSO), 5 days (fraction); higher = more cells survive
Sorafenib + Decitabine = compound: CNC(=O)c1cc(Oc2ccc(NC(=O)Nc3ccc(Cl)c(C(F)(F)F)c3)cc2)ccn1 [Sorafenib] + Nc1ncn([C@H]2C[C@H](O)[C@@H](CO)O2)c(=O)n1 [Decitabine] (partner 2 µM)
In short: (§1)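 Lung cancer cell lines, seeded in 1536-well plates, were treated the following day by pin tool with a single drug or with five library-drug doses (not always all listed) in √10 steps on top of a fixed anchor-drug dose. Cells were fixed and nuclei stained in one step after 5 days, and nuclei were counted. Relative viability is the nuclei count for treated wells divided by that for vehicle wells, reported as medians of duplicate plates.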

Sorafenib + Alpelisib = compound: CNC(=O)c1cc(Oc2ccc(NC(=O)Nc3ccc(Cl)c(C(F)(F)F)c3)cc2)ccn1 [Sorafenib] + Cc1nc(NC(=O)N2CCC[C@H]2C(N)=O)sc1-c1ccnc(C(C)(C)C(F)(F)F)c1 [Alpelisib] (partner 2 µM)
In short: as §1

Sorafenib + Tozasertib = compound: CNC(=O)c1cc(Oc2ccc(NC(=O)Nc3ccc(Cl)c(C(F)(F)F)c3)cc2)ccn1 [Sorafenib] + Cc1cc(Nc2cc(N3CCN(C)CC3)nc(Sc3ccc(NC(=O)C4CC4)cc3)n2)n[nH]1 [Tozasertib] (partner 0.1 µM)
In short: as §1

Sorafenib + Bortezomib = compound: CNC(=O)c1cc(Oc2ccc(NC(=O)Nc3ccc(Cl)c(C(F)(F)F)c3)cc2)ccn1 [Sorafenib] + CC(C)C[C@H](NC(=O)[C@H](Cc1ccccc1)NC(=O)c1cnccn1)B(O)O [Bortezomib] (partner 0.002 µM)
In short: as §1

Sorafenib + Navitoclax = compound: CNC(=O)c1cc(Oc2ccc(NC(=O)Nc3ccc(Cl)c(C(F)(F)F)c3)cc2)ccn1 [Sorafenib] + CC1(C)CCC(c2ccc(Cl)cc2)=C(CN2CCN(c3ccc(C(=O)NS(=O)(=O)c4ccc(N[C@H](CCN5CCOCC5)CSc5ccccc5)c(S(=O)(=O)C(F)(F)F)c4)cc3)CC2)C1 [Navitoclax] (partner 0.5 µM)
In short: as §1

Cell Line	relative viability (Sorafenib + Decitabine; first compound 0.08 µM)	relative viability (Sorafenib + Decitabine; first compound 0.253 µM)	relative viability (Sorafenib + Decitabine; first compound 2.53 µM)	relative viability (Sorafenib + Decitabine; first compound 8 µM)	relative viability (Sorafenib + Alpelisib; first compound 0.08 µM)	relative viability (Sorafenib + Alpelisib; first compound 0.253 µM)	relative viability (Sorafenib + Alpelisib; first compound 2.53 µM)	relative viability (Sorafenib + Alpelisib; first compound 8 µM)	relative viability (Sorafenib + Tozasertib; first compound 0.08 µM)	relative viability (Sorafenib + Tozasertib; first compound 0.253 µM)	relative viability (Sorafenib + Tozasertib; first compound 2.53 µM)	relative viability (Sorafenib + Tozasertib; first compound 8 µM)	relative viability (Sorafenib + Bortezomib; first compound 0.08 µM)	relative viability (Sorafenib + Bortezomib; first compound 2.53 µM)	relative viability (Sorafenib + Bortezomib; first compound 8 µM)	relative viability (Sorafenib + Navitoclax; first compound 0.08 µM)	relative viability (Sorafenib + Navitoclax; first compound 0.253 µM)	relative viability (Sorafenib + Navitoclax; first compound 2.53 µM)	relative viability (Sorafenib + Navitoclax; first compound 8 µM)	relative viability (Sorafenib + Bortezomib; first compound 0.253 µM)
NCI-H596	0.987	1.01	1.16	1.05	0.471	0.447	0.521	0.509	1.01	0.907	0.871	0.406	1.02	1.19	1.14	0.892	1.13	1.02	1.02	–
NCI-H647	0.4	0.316	0.355	0.184	1.1	–	0.872	–	0.246	0.218	0.165	0.0549	1.17	0.745	0.39	1.2	1.09	0.97	0.538	0.829
NCI-H727	0.988	0.947	0.805	0.781	0.623	0.579	0.702	0.326	0.643	0.638	0.555	0.487	0.775	0.699	0.516	0.604	0.632	0.675	0.369	0.618
NCI-H838	0.507	0.454	0.429	0.373	1.08	1.1	1.15	0.905	0.278	0.261	0.284	0.197	0.875	1.15	0.651	1.23	1.26	1.29	–	–
NCI-H1355	0.353	0.308	0.336	0.321	0.887	0.767	0.784	0.778	0.55	0.592	0.416	0.354	1.15	1.14	1.15	0.916	0.983	0.86	0.668	1.05
NCI-H1437	0.536	0.524	0.626	0.393	1.01	0.922	0.905	0.546	0.419	0.384	0.416	0.291	0.629	0.59	–	1.05	1.03	0.91	0.438	0.513
NCI-H1651	0.658	0.564	0.577	0.501	0.979	0.981	0.996	0.547	0.833	0.643	0.698	0.445	0.995	0.92	0.801	1.04	0.985	1.04	0.472	0.855
NCI-H1666	0.834	0.774	0.727	0.616	0.849	0.93	0.782	0.537	0.681	0.641	0.581	0.503	–	0.851	–	1.01	0.953	0.752	0.577	0.66
